Assay results as given in US11180504B2 (ORCHID PHARMA LTD., priority 2016, dated 2021).
≈ marks a conversion by molar mass, not a printed value. Read-outs that look alike come from different tables or passages of the source.

What was measured:
[1] = system: carbapenem sensitive Pseudomonas aeruginosa; assay: MIC by broth micro-dilution (CLSI), carbapenem sensitive P. aeruginosa; format: cell-based
[2] = system: methicillin-sensitive Staphylococcus aureus; assay: MIC by broth micro-dilution (CLSI), methicillin-sensitive S. aureus; format: cell-based; details: MSSA S. aureus ATCC29213
[3] = system: carbapenem sensitive Escherichia coli; assay: MIC by broth micro-dilution (CLSI), carbapenem sensitive E. coli; format: cell-based
[4] = system: carbapenemase producing K. pneumoniae; assay: MIC by broth micro-dilution (CLSI), carbapenemase producing K. pneumoniae; format: cell-based, Klebsiella pneumoniae
[5] = Pseudomonas aeruginosa, ATCC27853, Meropenem susceptible P. aeruginosa ATCC27853, read-out: MIC
[6] = Staphylococcus aureus, ATCC 29213 / MSSA, read-out: MIC
[7] = Escherichia coli, ATCC25922, ESBL −ve E. coli ATCC25922, read-out: MIC
[8] = Klebsiella pneumoniae, ATCCBAA1705, KPC-2 K. pneumoniae ATCC BAA-1705, read-out: MIC
[9] = KPC-2 K. pneumoniae ATCC BAA-1705

MIC [1, 5] [µg/mL]	MIC [2, 6] [µg/mL]	MIC [3, 7] [µg/mL]	MIC [4, 8] [µg/mL]	MIC [4, 9] [µg/mL]	MIC ([1]; Meropenem susceptible P. aeruginosa ATCC27853) [µg/mL]	MIC [2] [µg/mL]	MIC ([3]; ESBL −ve E. coli ATCC25922) [µg/mL]	Compound
16 (≈ 25.9 µM)	4 (≈ 6.49 µM)	0.5 (≈ 0.811 µM)	1 (≈ 1.62 µM)					C[C@@H](NC(=O)Cn1cnnn1)[C@H]1C(=O)N2C(C(=O)O)=C(S[C@@H]3CN[C@H](C(=O)N4CCC5CN(CCN)CCC54)C3)[C@H](C)[C@H]12 (stereo partly drawn) [Example 489, (4R,5S,6R)-6-((R)-1-(2-(1H-tetrazol-1-yl)acetamido)ethyl)-3-((3S,5S)-5-(5-(2-aminoethyl)octahydro-1H-pyrrolo[3,2-c]pyridine-1-carbonyl)pyrrolidin-3-ylthio)-4-methyl-7-oxo-1-azabicyclo[3.2.0]hept-2-ene-2-carboxylic acid]
8 (≈ 14.1 µM)	4 (≈ 7.07 µM)	0.25 (≈ 0.442 µM)	2 (≈ 3.54 µM)					C[C@@H](NC(=O)Cn1cnnn1)[C@H]1C(=O)N2C(C(=O)O)=C(S[C@@H]3CN[C@H](C(=O)N4C[C@@H](N)C[C@H]4CF)C3)[C@H](C)[C@H]12 [Example 491, (4R,5S,6R)-6-((R)-1-(2-(1H-tetrazol-1-yl)acetamido)ethyl)-3-((3S,5S)-5-((2S,4S)-4-amino-2-(fluoromethyl)pyrrolidine-1-carbonyl)pyrrolidin-3-ylthio)-4-methyl-7-oxo-1-azabicyclo[3.2.0]hept-2-eoe-2-carboxylic acid]
2 (≈ 3.31 µM)	4 (≈ 6.61 µM)	0.5 (≈ 0.827 µM)	2 (≈ 3.31 µM)					C[C@@H](NC(=O)Cn1cnnn1)[C@H]1C(=O)N2C(C(=O)O)=C(S[C@@H]3CN[C@H](C(=O)N4CC[C@@H](NC(=O)CCN)C4)C3)[C@H](C)[C@H]12 [Example 492, (4R,5S,6R)-6-((R)-1-(2-(1H-tetrazol-1-yl)acetamido)ethyl)-3-((3S,5S)-5-((R)-3-(3-aminopropanamido)pyrrolidine-1-carbonyl)pyrrolidin-3-ylthio)-4-methyl-7-oxo-1-azabicyclo[3.2.0]hept-2-ene-2-carboxylic acid]
16 (≈ 28.4 µM)	8 (≈ 14.2 µM)	0.25 (≈ 0.444 µM)	4 (≈ 7.1 µM)					CO[C@H]1CN(C(=O)[C@@H]2C[C@H](SC3=C(C(=O)O)N4C(=O)[C@H]([C@@H](C)NC(=O)Cn5cnnn5)[C@H]4[C@H]3C)CN2)C[C@@H]1N [Example 494, (4R,5S,6R)-6-((R)-1-(2-(1H-tetrazol-1-yl)acetamido)ethyl)-3-((3S,5S)-5-((3S,4S)-3-amino-4-methoxypyrrolidine-1-carbonyl)pyrrolidin-3-ylthio)-4-methyl-7-oxo-1-azabicyclo[3.2.0]hept-2-ene-2-carboxylic acid]
8 (≈ 14.5 µM)	2 (≈ 3.63 µM)	0.125 (≈ 0.227 µM)	2 (≈ 3.63 µM)					C[C@@H](NC(=O)Cn1cnnn1)[C@H]1C(=O)N2C(C(=O)O)=C(S[C@@H]3CN[C@H](C(=O)N4C[C@@H](F)[C@@H](N)C4)C3)[C@H](C)[C@H]12 [Example 498, (4R,5S,6R)-6-((R)-1-(2-(1H-tetrazol-1-yl)acetamido)ethyl)-3-((3S,5S)-5-((3S,4R)-3-amino-4-fluoropyrrolidine-1-carbonyl)pyrrolidin-3-ylthio)-4-methyl-7-oxo-1-azabicyclo[3.2.0]hept-2-ene-2-carboxylic acid]
1 (≈ 1.7 µM)	2 (≈ 3.4 µM)	0.25 (≈ 0.425 µM)	1 (≈ 1.7 µM)					C[C@@H](NC(=O)Cn1cnnn1)[C@H]1C(=O)N2C(C(=O)O)=C(S[C@@H]3CN[C@H](C(=O)N4CCC5(CCNCC5)C4)C3)[C@H](C)[C@H]12 [Example 499, (4R,5S,6R)-6-((R)-1-(2-(1H-tetrazol-1-yl)acetamido)ethyl)-3-((3S,5S)-5-(2,8-diazaspiro[4.5]decane-2-carbonyl)pyrrolidin-3-ylthio)-4-methyl-7-oxo-1-azabicyclo[3.2.0]hept-2-ene-2-carboxylic acid]
2 (≈ 3.47 µM)	2 (≈ 3.47 µM)	0.25 (≈ 0.434 µM)	2 (≈ 3.47 µM)					C[C@@H](NC(=O)Cn1cnnn1)[C@H]1C(=O)N2C(C(=O)O)=C(S[C@@H]3CN[C@H](C(=O)N4CC[C@@H](C(C)(C)N)C4)C3)[C@H](C)[C@H]12 [Example 500, (4R,5S,6R)-6-((R)-1-(2-(1H-tetrazol-1-yl)acetamido)ethyl)-3-((3S,5S)-5-((R)-3-(2-aminopropan-2-yl)pyrrolidine-1-carbonyl)pyrrolidin-3-ylthio)-4-methyl-7-oxo-1-azabicyclo[3.2.0]hept-2-ene-2-carboxylic acid]
1 (≈ 1.79 µM)	4 (≈ 7.15 µM)	0.25 (≈ 0.447 µM)	1 (≈ 1.79 µM)					C[C@@H](NC(=O)Cn1cnnn1)[C@H]1C(=O)N2C(C(=O)O)=C(S[C@@H]3CN[C@H](C(=O)N4CC5(CCNC5)C4)C3)[C@H](C)[C@H]12 [Example 501, (4R,5S,6R)-6-((R)-1-(2-(1H-tetrazol-1-yl)acetamido)ethyl)-3-((3S,5S)-5-(2,6-diazaspiro[3,4]octane-2-carbonyl)pyrrolidin-3-ylthio)-4-methyl-7-oxo-1-azabicyclo[3.2.0]hept-2-ene-2-carboxylic acid]
2 (≈ 3.57 µM)	4 (≈ 7.15 µM)	0.25 (≈ 0.447 µM)	1 (≈ 1.79 µM)					C[C@@H](NC(=O)Cn1cnnn1)[C@H]1C(=O)N2C(C(=O)O)=C(S[C@@H]3CN[C@H](C(=O)N4CCC5(CNC5)C4)C3)[C@H](C)[C@H]12 [Example 502, (4R,5S,6R)-6-((R)-1-(2-(1H-tetrazol-1-yl)acetamido)ethyl)-3-((3S,5S)-5-(2,6-diazaspiro[3.4]octane-6-carbonyl)pyrrolidin-3-ylthio)-4-methyl-7-oxo-1-azabicyclo[3.2.0]hept-2-ene-2-carboxylic acid]
16 (≈ 27.2 µM)	2 (≈ 3.4 µM)	0.5 (≈ 0.851 µM)		1 (≈ 1.7 µM)				C[C@@H](NC(=O)Cn1cnnn1)[C@H]1C(=O)N2C(C(=O)O)=C(S[C@@H]3CN[C@H](C(=O)N4CCCC45CCCNC5)C3)[C@H](C)[C@H]12 (stereo partly drawn) [Example 503, (4R,5S,6R)-3-((3S,5S)-5-(1,7-diazaspiro[4.5]decane-1-carbonyl)pyrrolidin-3-ylthio)-6-((R)-1-(2-(1H-tetrazol-1-yl)acetamido)ethyl)-4-methyl-7-oxo-1-azabicyclo[3.2.0]hept-2-ene-2-carboxylic acid]
1 (≈ 1.79 µM)	2 (≈ 3.57 µM)	0.25 (≈ 0.447 µM)	1 (≈ 1.79 µM)					C[C@@H](NC(=O)Cn1cnnn1)[C@H]1C(=O)N2C(C(=O)O)=C(S[C@@H]3CN[C@H](C(=O)N4CC5CCNC5C4)C3)[C@H](C)[C@H]12 (stereo partly drawn) [Example 505, (4R,5S,6R)-6-((R)-1-(2-(1H-tetrazol-1-yl)acetamido)ethyl)-4-methyl-3-((3S,5S)-5-(octahydropyrrolo[3,4-b]pyrrole-5-carbonyl)pyrrolidin-3-ylthio)-7-oxo-1-azabicyclo[3.2.0]hept-2-ene-2-carboxylic acid]
				1 (≈ 1.79 µM)	1 (≈ 1.79 µM)	4 (≈ 7.15 µM)	0.25 (≈ 0.447 µM)	C[C@@H](NC(=O)Cn1cnnn1)[C@H]1C(=O)N2C(C(=O)O)=C(S[C@@H]3CN[C@H](C(=O)N4CC5CCNC5C4)C3)[C@H](C)[C@H]12 (stereo partly drawn) [Example 506, (4R,5S,6R)-6-((R)-1-(2-(1H-tetrazol-1-yl)acetamido)ethyl)-4-methyl-3-((3S,5S)-5-(octahydropyrrolo[3,4-b]pyrrole-5-carbonyl)pyrrolidin-3-ylthio)-7-oxo-1-azabicyclo[3.2.0]hept-2-ene-2-carboxylic acid]
64 (≈ 117 µM)	2 (≈ 3.65 µM)	1 (≈ 1.83 µM)	8 (≈ 14.6 µM)					C[C@@H](NC(=O)CSC(F)F)[C@H]1C(=O)N2C(C(=O)O)=C(S[C@@H]3CN[C@H](C(=O)N4CC[C@@H](N)C4)C3)[C@H](C)[C@H]12 [Example 507, (4R,5S,6R)-3-((3S,5S)-5-((R)-3-aminopyrrolidine-1-carbonyl)pyrrolidin-3-ylthio)-6-((R)-1-(2-(difluoromethylthio)acetamido)ethyl)-4-methyl-7-oxo-1-azabicyclo[3.2.0]hept-2-ene-2-carboxylic acid]
128 (≈ 252 µM)	16 (≈ 31.5 µM)	2 (≈ 3.93 µM)	8 (≈ 15.7 µM)					C[C@@H](NC(=O)CN1CCNCC1)[C@H]1C(=O)N2C(C(=O)O)=C(S[C@@H]3CN[C@H](C(=O)N(C)C)C3)[C@H](C)[C@H]12 [Example 508, (4R,5S,6R)-3-((3S,5S)-5-(dimethylcarbamoyl)pyrrolidin-3-ylthio)-4-methyl-7-oxo-6-((R)-1-(2-(piperazin-1-yl)acetamido)ethyl)-1-azabicyclo[3.2.0]hept-2-ene-2-carboxylic acid]
> 128	8 (≈ 15.1 µM)	2 (≈ 3.78 µM)	64 (≈ 121 µM)					C[C@@H](NC(=O)CN1CCC(F)(F)C1)[C@H]1C(=O)N2C(C(=O)O)=C(S[C@@H]3CN[C@H](C(=O)N(C)C)C3)[C@H](C)[C@H]12 [Example 512, (4R,5S,6R)-6-((R)-1-(2-(3,3-difluoropyrrolidin-1-yl)acetamido)ethyl)-3-((3S,5S)-5-(dimethylcarbamoyl)pyrrolidin-3-ylthio)-4-methyl-7-oxo-1-azabicyclo[3.2.0]hept-2-ene-2-carboxylic acid]
16 (≈ 29.2 µM)	4 (≈ 7.3 µM)	0.25 (≈ 0.457 µM)	1 (≈ 1.83 µM)					C[C@@H](NC(=O)Cn1cnnn1)[C@H]1C(=O)N2C(C(=O)O)=C(S[C@@H]3CN[C@H](C(=O)NC[C@@H]4CCNC4)C3)[C@H](C)[C@H]12 [Example 513, (4R,5S,6R)-6-((R)-1-(2-(1H-tetrazol-1-yl)acetamido)ethyl)-4-methyl-7-oxo-3-((3S,5S)-5-((R)-pyrrolidin-3-ylmethylcarbamoyl)pyrrolidin-3-ylthio)-1-azabicyclo[3.2.0]hept-2-ene-2-carboxylic acid]
